PubChem BioAssay AID256 (DTP/NCI, 2004)
Where “and” joins values, the source holds several entries; their conditions need not be identical. Equal values may be shown once. Toxic doses and inconclusive results are not listed. How the source made its calls: active means survival T/C of 150% or more; inactive means T/C below 125% in these data.

Tested on: CD2F1 mice, L1210 leukemia ip, survival T/C
Assay: NCI In Vivo Anticancer Drug Screen. Data for tumor model L1210 Leukemia (intraperitoneal) in CD2F1 (CDF1) mice
Conditions: higher = longer survival
Summary of the method: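 Implant tumor; dose compound or vehicle; measure endpoint in both groups; report treated divided by control.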

[1] = endpoint: mean survival time, dose: 50.0 mg/kg/injection, schedule: Q01DX009 (ip), vehicle: saline with Tween-80
[2] = endpoint: mean survival time, dose: 100.0 mg/kg/injection, schedule: Q04DX003 (ip), vehicle: saline with Tween-80
[3] = endpoint: mean survival time, dose: 200.0 mg/kg/injection, schedule: Q01DX009 (ip), vehicle: saline with Tween-80
[4] = endpoint: mean survival time, dose: 200.0 mg/kg/injection, schedule: Q04DX003 (ip), vehicle: saline with Tween-80
[5] = endpoint: mean survival time, dose: 25.0 mg/kg/injection, schedule: Q04DX003 (ip), vehicle: saline with Tween-80
[6] = endpoint: mean survival time, dose: 12.5 mg/kg/injection, schedule: Q01DX009 (ip), vehicle: saline with Tween-80
[7] = endpoint: mean survival time, dose: 25.0 mg/kg/injection, schedule: Q01DX009 (ip), vehicle: saline with Tween-80
[8] = endpoint: mean survival time, dose: 100.0 mg/kg/injection, schedule: Q01DX009 (ip), vehicle: saline with Tween-80
[9] = endpoint: mean survival time, dose: 400.0 mg/kg/injection, schedule: Q01DX009 (ip), vehicle: saline with Tween-80
[10] = endpoint: mean survival time, dose: 100.0 mg/kg/injection, schedule: Q01DX001 (ip), vehicle: saline with Tween-80
[11] = endpoint: mean survival time, dose: 200.0 mg/kg/injection, schedule: Q01DX001 (ip), vehicle: saline with Tween-80
[12] = endpoint: mean survival time, dose: 400.0 mg/kg/injection, schedule: Q01DX001 (ip), vehicle: saline with Tween-80
[13] = endpoint: mean survival time, dose: 100.0 mg/kg/injection, schedule: Q01DX001 (ip), vehicle: saline
[14] = endpoint: mean survival time, dose: 200.0 mg/kg/injection, schedule: Q01DX001 (ip), vehicle: saline
[15] = endpoint: mean survival time, dose: 400.0 mg/kg/injection, schedule: Q01DX001 (ip), vehicle: saline
[16] = endpoint: mean survival time, dose: 50.0 mg/kg/injection, schedule: Q01DX009 (ip), vehicle: Klucel (hydroxypropylcellulose) (HPC)
[17] = endpoint: mean survival time, dose: 100.0 mg/kg/injection, schedule: Q01DX009 (ip), vehicle: Klucel (hydroxypropylcellulose) (HPC)
[18] = endpoint: mean survival time, dose: 100.0 mg/kg/injection, schedule: Q01DX009 (ip), vehicle: saline
[19] = endpoint: mean survival time, dose: 200.0 mg/kg/injection, schedule: Q01DX009 (ip), vehicle: saline

Measured: T/C

Cc1cn(C2OC(CO)C(O)C2O)c(=O)nc1N (stereo not drawn)
inactive: endpoint: median survival time, dose: 25.0 mg/kg/injection, schedule: Q01DX005 (ip), vehicle: water 96 % of control | endpoint: median survival time, dose: 50.0 mg/kg/injection, schedule: Q01DX005 (ip), vehicle: water 104 % of control | endpoint: median survival time, dose: 100.0 mg/kg/injection, schedule: Q01DX005 (ip), vehicle: water 104 % of control | endpoint: median survival time, dose: 200.0 mg/kg/injection, schedule: Q01DX005 (ip), vehicle: water 104 % of control

O=S=Nc1ccc(S(=O)(=O)c2ccc(N=S=O)cc2)cc1
inactive: [1] 96 % of control | [2] 95 % of control | [3] 101 % of control | [4] 95 % of control

CC(C(=O)c1ccccc1)C(N[N+](C)(C)C)c1ccccc1 (stereo not drawn)
inactive: [5] 96 % of control

COc1ccc(-c2nc(N)ncc2C)cc1
inactive: endpoint: mean survival time, dose: 100.0 mg/kg/injection, schedule: Q04DX002 (ip), vehicle: other 96 % of control | endpoint: mean survival time, dose: 200.0 mg/kg/injection, schedule: Q04DX002 (ip), vehicle: other 96 % of control | endpoint: mean survival time, dose: 400.0 mg/kg/injection, schedule: Q04DX002 (ip), vehicle: other 101 % of control

CCC12CCCN=C1c1c([nH]c3ccccc13)CC2 (stereo not drawn)
inactive: endpoint: mean survival time, dose: 6.25 mg/kg/injection, schedule: Q04DX002 (ip), vehicle: saline with Tween-80 102 % of control | endpoint: mean survival time, dose: 12.5 mg/kg/injection, schedule: Q04DX002 (ip), vehicle: saline with Tween-80 104 % of control | endpoint: mean survival time, dose: 25.0 mg/kg/injection, schedule: Q04DX002 (ip), vehicle: saline with Tween-80 98 % of control

C1CCC2CCCN2CC1 (stereo not drawn)
inactive: [6] 95 % of control | endpoint: mean survival time, dose: 12.5 mg/kg/injection, schedule: Q04DX003 (ip), vehicle: acetone 94 % of control | [7] 94 % of control | endpoint: mean survival time, dose: 25.0 mg/kg/injection, schedule: Q04DX003 (ip), vehicle: acetone 92 % of control | endpoint: mean survival time, dose: 50.0 mg/kg/injection, schedule: Q04DX003 (ip), vehicle: acetone 100 % of control

Cc1c(Cl)c(C)c(Cl)c(O)c1Cl
inactive: [8] 96 % of control | [3] 100 % of control | [9] 87 % of control

CC(C)CCCC(C)[C@@H]1CCC2[C@H]3CCC4(C)CC5=C(C[C@@]4(C)C3CC[C@]21C)C(=O)CC1C2CCCCC2CCN51 (stereo partly drawn)
inactive: [10] 102 % of control | [11] 90 % of control | [12] 90 % of control

CC(C)(C)OC(=O)NCCCCC(NC(=O)OC(C)(C)C)C(=O)O (stereo not drawn)
inactive: [13] 100 % of control | [14] 110 % of control | [15] 97 % of control

COC(=O)C1(C)CCOC1=O (stereo not drawn)
inactive: endpoint: mean survival time, dose: 100.0 mg/kg/injection, schedule: Q04DX002 (ip), vehicle: saline 107 % of control | endpoint: mean survival time, dose: 200.0 mg/kg/injection, schedule: Q04DX002 (ip), vehicle: saline 98 % of control | endpoint: mean survival time, dose: 400.0 mg/kg/injection, schedule: Q04DX002 (ip), vehicle: saline 102 % of control

CCCNC(C)(C)C(SS)c1ccc(C(F)(F)F)cc1 (stereo not drawn)
inactive: endpoint: mean survival time, dose: 200.0 mg/kg/injection, schedule: Q04DX003 (ip), vehicle: other 100 % of control | endpoint: mean survival time, dose: 400.0 mg/kg/injection, schedule: Q04DX003 (ip), vehicle: other 90 % of control

COC(=O)Nc1cccc(-c2nc3ccc(NC(=O)OC)cc3c(=O)n2-c2ccccc2)c1
inactive: [16] 114 % of control | [17] 91 % of control | endpoint: median survival time, dose: 50.0 mg/kg/injection, schedule: Q04DX003 (ip), vehicle: saline with Tween-80 101 % of control | endpoint: median survival time, dose: 100.0 mg/kg/injection, schedule: Q04DX003 (ip), vehicle: saline with Tween-80 103 % of control | endpoint: median survival time, dose: 200.0 mg/kg/injection, schedule: Q04DX003 (ip), vehicle: saline with Tween-80 100 % of control

CCCCOC(=O)C(N)=O
inactive: [17] 94 % of control | [2] 97 % of control | endpoint: mean survival time, dose: 200.0 mg/kg/injection, schedule: Q01DX009 (ip), vehicle: Klucel (hydroxypropylcellulose) (HPC) 100 % of control | [4] 100 % of control | endpoint: mean survival time, dose: 400.0 mg/kg/injection, schedule: Q01DX009 (ip), vehicle: Klucel (hydroxypropylcellulose) (HPC) 93 % of control | endpoint: mean survival time, dose: 400.0 mg/kg/injection, schedule: Q04DX003 (ip), vehicle: saline with Tween-80 102 % of control

CC(=O)OCC1OC(OC(C)=O)C(NC(=O)N(CCN(C)CCO)N=O)C(OC(C)=O)C1OC(C)=O (stereo not drawn)
inactive: endpoint: mean survival time, dose: 4.06 mg/kg/injection, schedule: Q04DX002 (ip), vehicle: saline + alcohol 100 % of control | endpoint: mean survival time, dose: 8.13 mg/kg/injection, schedule: Q04DX002 (ip), vehicle: saline + alcohol 101 % of control | endpoint: mean survival time, dose: 16.25 mg/kg/injection, schedule: Q04DX002 (ip), vehicle: saline + alcohol 101 % of control | endpoint: mean survival time, dose: 32.5 mg/kg/injection, schedule: Q04DX002 (ip), vehicle: saline + alcohol 97 % of control | endpoint: mean survival time, dose: 65.0 mg/kg/injection, schedule: Q04DX002 (ip), vehicle: saline + alcohol 101 % of control | endpoint: mean survival time, dose: 130.0 mg/kg/injection, schedule: Q04DX002 (ip), vehicle: saline + alcohol 107 % of control

O=P(O)(O)OCC(O)CCl (stereo not drawn)
inactive: [18] 96 % of control | endpoint: mean survival time, dose: 100.0 mg/kg/injection, schedule: Q04DX003 (ip), vehicle: saline 100 % of control | [19] 92 % of control | endpoint: mean survival time, dose: 200.0 mg/kg/injection, schedule: Q04DX003 (ip), vehicle: saline 91 % of control | endpoint: mean survival time, dose: 400.0 mg/kg/injection, schedule: Q04DX003 (ip), vehicle: saline 103 % of control

O=C(CC(c1ccccc1)c1ccccc1)c1ccccc1
inactive: [8] 98 % of control | [3] 95 % of control | [9] 98 % of control

CCOC(=O)CN1CCC(C2(c3cc4ccccc4[nH]3)OCCO2)CC1
inactive: [10] 102 % of control | [11] 102 % of control | [12] 102 % of control

CS(=O)(=O)C(Br)(Br)S(C)(=O)=O
inactive: endpoint: mean survival time, dose: 4.7 mg/kg/injection, schedule: Q01DX001 (ip), vehicle: saline with Tween-80 103 % of control | endpoint: mean survival time, dose: 9.4 mg/kg/injection, schedule: Q01DX001 (ip), vehicle: saline with Tween-80 100 % of control

Cc1cc(C)[nH]c(=O)c1
inactive: [18] 106 % of control | [19] 106 % of control | endpoint: mean survival time, dose: 400.0 mg/kg/injection, schedule: Q01DX009 (ip), vehicle: saline 106 % of control

CC1OC(OCC2OC(Oc3c(-c4ccc(O)c(O)c4)oc4cc(O)cc(O)c4c3=O)C(O)C(O)C2O)C(O)C(O)C1O (stereo not drawn)
inactive: [13] 100 % of control | [14] 102 % of control | [15] 100 % of control

CCCCC(C#N)(CCCC)C(=O)OCC
inactive: [1] 101 % of control | [8] 91 % of control | [3] 97 % of control

COc1cc(C(=O)C=[N+]=[N-])cc(OC)c1OC(C)=O
inactive: [13] 91 % of control | [14] 96 % of control | [15] 110 % of control

O=C(OCC(F)(F)F)C(Cl)(Cl)Cl
inactive: endpoint: mean survival time, dose: 75.0 mg/kg/injection, schedule: Q01DX001 (ip), vehicle: saline 97 % of control | endpoint: mean survival time, dose: 150.0 mg/kg/injection, schedule: Q01DX001 (ip), vehicle: saline 107 % of control | endpoint: mean survival time, dose: 300.0 mg/kg/injection, schedule: Q01DX001 (ip), vehicle: saline 107 % of control

Cc1ccc(C(=O)NN)cc1
inactive: [5] 96 % of control | endpoint: mean survival time, dose: 50.0 mg/kg/injection, schedule: Q04DX003 (ip), vehicle: saline with Tween-80 96 % of control | [2] 95 % of control and 107 % of control

CCOC(=O)NCCBr
inactive: endpoint: mean survival time, dose: 37.5 mg/kg/injection, schedule: Q01DX007 (ip), vehicle: saline 88 % of control | endpoint: mean survival time, dose: 75.0 mg/kg/injection, schedule: Q01DX007 (ip), vehicle: saline 97 % of control | endpoint: mean survival time, dose: 150.0 mg/kg/injection, schedule: Q01DX007 (ip), vehicle: saline 92 % of control

CCCCCCOC(CN(C)C)C(Cl)(Cl)Cl (stereo not drawn)
inactive: [6] 96 % of control and 103 % of control | [7] 96 % of control and 100 % of control | [1] 97 % of control and 100 % of control | [8] 96 % of control and 101 % of control | [3] 102 % of control and 105 % of control | [9] 105 % of control

Nc1nc2ccc(Cl)cc2[nH]1
inactive: [16] 93 % of control | [17] 91 % of control
